Patent publication US9132109B2, “Use of non-steroidal anti-inflammatory drugs by inhalation in the treatment of acute and chronic bronchitis” (MEDESTEA RESEARCH & PRODUCTION S.P.A., priority 2005, dated 2015)
Like-named read-outs stand apart in the source and are kept apart here.

Columns and labels:
[1] = test system: bronchitic patients; details: cited from earlier work
[2] = test system: bronchitic patients; test: Pulmonary function and pro-inflammatory parameters in bronchitic patients after nebulised drug; type: in vivo, human; details: aspirin by nebuliser
Procedure: The study involved 4 patients with a diagnosis of COPD according to the ATS/ERS guidelines (B R Celli et al. Eur. Respir. J. 2004; 23: 932-46), who were smokers or former smokers (≧20 packets a year). The patients were instructed in the use of a peak expiratory flow (PEF) measuring device using a peak flowmeter, and asked to record the PEF measurements in a daily diary. The measurements were performed 3 times a day: immediately after getting up in the morning, before lunch, and at night before going to bed. […] The patients were suitably instructed as to how to perform the PEF measurements, and asked to record the various measurements and any symptoms, whether correlated with the disease or not, in a daily diary. Before beginning treatment with 900 mg lysine acetylsalicylate (equivalent to 500 mg of acetylsalicylic acid) twice a day, morning and evening, administered after measurement of the corresponding PEF, the patients discontinued all pharmacological treatment except for short-acting bronchodilators in accordance with the ATS/ERS guidelines (B R Celli et al. Eur. Respir. J. 2004; 932-46) as first-line of treatment. This basic treatment was continued for 15 days, during which the PEF values were recorded; their mean value was considered as the baseline value. […]

[3] = test system: asthma patients; details: by inhalation, Sestini P. et al. 1999; cited from earlier work
[4] = test system: bronchitic patients; details: indomethacin inhaler; Tamaoki et al.; cited from earlier work
[5] = test system: patients with a diagnosis of COPD; test: Peak expiratory flow (PEF) in COPD patients treated by inhalation; type: in vivo, human; details: 900 mg lysine acetylsalicylate (equivalent to 500 mg acetylsalicylic acid) twice a day by inhalation, 30 days, vs 15-day baseline; two patients; similar at all 3 daily measurements
Procedure: The study involved 4 patients with a diagnosis of COPD according to the ATS/ERS guidelines (B R Celli et al. Eur. Respir. J. 2004; 23: 932-46), who were smokers or former smokers (≧20 packets a year). The patients were instructed in the use of a peak expiratory flow (PEF) measuring device using a peak flowmeter, and asked to record the PEF measurements in a daily diary. The measurements were performed 3 times a day: immediately after getting up in the morning, before lunch, and at night before going to bed. At least 3 daily PEF measurements are considered a good method for the measurement of pulmonary function (C A. Holcroft et al., Chest, 2003; 124: 501-10). PEF measurement has also been used, together with other spirometric tests, to evaluate potential COPD drugs (N A. Hanania et al., Chest, 2003; 124: 834-43). The patients were suitably instructed as to how to perform the PEF measurements, and asked to record the various measurements and any symptoms, whether correlated with the disease or not, in a daily diary. […] This basic treatment was continued for 15 days, during which the PEF values were recorded; their mean value was considered as the baseline value. […]

Row | Structure (SMILES) | sputum volume ([1]; aspirin by inhalation, Inoue H et al. 1991) | pulmonary function [2] | pulmonary pro-inflammatory parameters [2] | immediate allergen-induced bronchoconstriction [3] | sputum volume ([1]; indomethacin inhaler, Tamaoki J. et al. 1992) | variation in respiratory function (FEV1) [4] | mean increase in PEF [5]
1 | CC(=O)Oc1ccccc1C(=O)O [aspirin, acetylsalicylic acid] | reduces the sputum volume | definite improvement | reduction | inhibited | – | – | –
2 | COc1ccc2c(c1)c(CC(=O)O)c(C)n2C(=O)c1ccc(Cl)cc1 [indomethacin] | – | – | – | ineffective | reduction in sputum volume | did not observe any significant variation | –
3 | CC(=O)Oc1ccccc1C(=O)O [lysine acetylsalicylate] | – | – | – | – | – | – | 8 to 10 L/min
